Measured values published in patent US20060110790A1, “Expression system for large functional proteins” (priority 2002, published 2006).

Assays:
Assay type in all cases: binding
full-length ABCR = full-length ABCR (Homo sapiens, UniProt P78363); assay: 8-azido-ATP photoaffinity labeling of membranes from transfected cells; parameters: Membranes from transfected cells expressing either full-length ABCR (lanes 1 & 2); expressed in transfected cells; host or cells: transfected cells (COS-1 or EBNA293); conditions: 1 mM ATP added prior to photoaffinity labeling; 1.5 μM 8-azido-[α-32P]ATP; FIG. 5A lane 2
full-length ABCR, sequence (P78363 whole entry): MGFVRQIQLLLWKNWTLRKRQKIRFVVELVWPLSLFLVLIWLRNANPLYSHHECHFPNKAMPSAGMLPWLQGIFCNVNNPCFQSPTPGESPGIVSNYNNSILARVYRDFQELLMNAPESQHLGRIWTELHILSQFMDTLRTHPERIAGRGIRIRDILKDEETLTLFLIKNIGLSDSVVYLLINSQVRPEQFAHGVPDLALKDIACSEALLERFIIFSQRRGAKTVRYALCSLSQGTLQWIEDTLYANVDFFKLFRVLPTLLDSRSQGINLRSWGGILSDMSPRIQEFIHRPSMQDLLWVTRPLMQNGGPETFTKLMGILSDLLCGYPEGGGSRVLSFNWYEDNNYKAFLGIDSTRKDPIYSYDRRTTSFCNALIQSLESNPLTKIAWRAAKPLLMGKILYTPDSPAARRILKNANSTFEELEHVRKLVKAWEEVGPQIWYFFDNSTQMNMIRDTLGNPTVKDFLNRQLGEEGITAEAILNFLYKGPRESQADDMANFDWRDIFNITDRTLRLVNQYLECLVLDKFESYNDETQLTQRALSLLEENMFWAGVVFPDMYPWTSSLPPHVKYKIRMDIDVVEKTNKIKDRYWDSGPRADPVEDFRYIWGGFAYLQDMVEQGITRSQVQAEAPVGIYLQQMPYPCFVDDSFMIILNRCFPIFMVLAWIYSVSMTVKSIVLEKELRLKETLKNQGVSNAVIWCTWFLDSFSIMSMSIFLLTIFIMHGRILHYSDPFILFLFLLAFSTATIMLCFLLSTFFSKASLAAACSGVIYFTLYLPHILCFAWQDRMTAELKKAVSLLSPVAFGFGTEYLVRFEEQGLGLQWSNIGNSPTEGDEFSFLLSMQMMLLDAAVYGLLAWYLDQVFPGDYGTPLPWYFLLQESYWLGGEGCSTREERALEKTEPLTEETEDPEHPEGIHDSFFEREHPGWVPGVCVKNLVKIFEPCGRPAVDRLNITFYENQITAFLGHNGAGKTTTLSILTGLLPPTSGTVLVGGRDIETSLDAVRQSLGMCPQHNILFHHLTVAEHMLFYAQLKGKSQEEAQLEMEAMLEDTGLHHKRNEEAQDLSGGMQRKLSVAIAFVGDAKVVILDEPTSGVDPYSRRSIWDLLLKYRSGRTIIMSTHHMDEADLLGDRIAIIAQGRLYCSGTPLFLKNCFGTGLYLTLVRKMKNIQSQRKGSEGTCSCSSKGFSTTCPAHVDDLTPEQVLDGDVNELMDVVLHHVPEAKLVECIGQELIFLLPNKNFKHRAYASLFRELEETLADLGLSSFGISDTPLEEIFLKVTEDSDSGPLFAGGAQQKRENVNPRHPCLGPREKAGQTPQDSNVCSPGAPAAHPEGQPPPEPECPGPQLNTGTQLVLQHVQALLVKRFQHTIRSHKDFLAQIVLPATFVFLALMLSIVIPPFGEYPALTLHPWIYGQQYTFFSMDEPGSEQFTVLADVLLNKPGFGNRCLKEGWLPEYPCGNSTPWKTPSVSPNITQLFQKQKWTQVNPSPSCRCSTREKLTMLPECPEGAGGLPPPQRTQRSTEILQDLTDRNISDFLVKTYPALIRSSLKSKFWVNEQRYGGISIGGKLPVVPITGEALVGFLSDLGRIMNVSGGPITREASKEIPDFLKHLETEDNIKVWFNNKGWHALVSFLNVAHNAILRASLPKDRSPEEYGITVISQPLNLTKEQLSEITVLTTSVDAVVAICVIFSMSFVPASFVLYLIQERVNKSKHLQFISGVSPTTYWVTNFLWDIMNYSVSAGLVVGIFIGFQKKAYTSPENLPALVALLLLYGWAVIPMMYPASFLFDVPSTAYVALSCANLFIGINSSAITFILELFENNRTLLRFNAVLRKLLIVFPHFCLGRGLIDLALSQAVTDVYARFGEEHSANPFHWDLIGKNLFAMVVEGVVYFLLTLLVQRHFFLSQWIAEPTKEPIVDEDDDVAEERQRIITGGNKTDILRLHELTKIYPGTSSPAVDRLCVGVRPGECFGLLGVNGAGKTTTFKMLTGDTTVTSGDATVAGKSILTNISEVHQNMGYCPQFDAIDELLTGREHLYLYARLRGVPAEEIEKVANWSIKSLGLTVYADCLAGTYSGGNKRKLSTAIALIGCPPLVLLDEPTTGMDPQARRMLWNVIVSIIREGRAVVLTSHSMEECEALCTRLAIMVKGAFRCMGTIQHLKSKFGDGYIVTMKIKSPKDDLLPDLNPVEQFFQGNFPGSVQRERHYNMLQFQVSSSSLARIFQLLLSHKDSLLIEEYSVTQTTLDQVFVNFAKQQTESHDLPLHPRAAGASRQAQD
Procedure: (§1) FIG. 5. Azido-ATP photoaffinity labeling of the N and C halves of ABCR. A. Membranes from transfected cells expressing either full-length ABCR (lanes 1 & 2) or co-expressing the N and C halves (lanes 3 & 4) were photoaffinity labeled with 1.5 μM 8-azido-[α-^32P]ATP in the absence or presence of 1 mM ATP. The expressed protein was isolated on a Rim3F4-Sepharose matrix prior to analysis by SDS-PAGE and phosphorimage analysis. Left panel: Coomassie blue stained gel. Right panel: Azido-ATP labeling. B. Membranes from transfected cells expressing full-length ABCR, the N-half, the C-half, or both halves (NC halves) were labeled with 8-azido-[α-^32P] and isolated as above. Similar amounts of protein were loaded in each lane of the gel as judged by staining with Coomassie brilliant blue (not shown). C. Rod outer segment membranes were incubated with (+) or without (−) trypsin and subsequently labeled with azido-[α-^32P]ATP. ABCR and the associated N and C complex were purified on a Rim3F4-Sepharose matrix. Left panel: Azido-ATP labeling of the full-length ABCR (220 kDa) and the C-half (114 kDa); N-half was not labeled. Right panel: Western blots labeled for the full-length ABCR and C-half with the Rim3F4 antibody and the N-half with the Rim5B4 antibody. […]

[1] = target: T1, co-expressed N and C halves of ABCR (Homo sapiens, UniProt P78363); assay: as above; conditions: 1 mM ATP added prior to photoaffinity labeling; 1.5 μM 8-azido-[α-32P]ATP; C-half labeled; FIG. 5A lane 4
T1 construct: The cDNAs coding for the N-half (amino acids 1-1325) and C-half (amino acids 1326-2273) of ABCR; made in house; host or cells: COS-1 cells, co-transfected
T1 sequence (P78363 1-1325): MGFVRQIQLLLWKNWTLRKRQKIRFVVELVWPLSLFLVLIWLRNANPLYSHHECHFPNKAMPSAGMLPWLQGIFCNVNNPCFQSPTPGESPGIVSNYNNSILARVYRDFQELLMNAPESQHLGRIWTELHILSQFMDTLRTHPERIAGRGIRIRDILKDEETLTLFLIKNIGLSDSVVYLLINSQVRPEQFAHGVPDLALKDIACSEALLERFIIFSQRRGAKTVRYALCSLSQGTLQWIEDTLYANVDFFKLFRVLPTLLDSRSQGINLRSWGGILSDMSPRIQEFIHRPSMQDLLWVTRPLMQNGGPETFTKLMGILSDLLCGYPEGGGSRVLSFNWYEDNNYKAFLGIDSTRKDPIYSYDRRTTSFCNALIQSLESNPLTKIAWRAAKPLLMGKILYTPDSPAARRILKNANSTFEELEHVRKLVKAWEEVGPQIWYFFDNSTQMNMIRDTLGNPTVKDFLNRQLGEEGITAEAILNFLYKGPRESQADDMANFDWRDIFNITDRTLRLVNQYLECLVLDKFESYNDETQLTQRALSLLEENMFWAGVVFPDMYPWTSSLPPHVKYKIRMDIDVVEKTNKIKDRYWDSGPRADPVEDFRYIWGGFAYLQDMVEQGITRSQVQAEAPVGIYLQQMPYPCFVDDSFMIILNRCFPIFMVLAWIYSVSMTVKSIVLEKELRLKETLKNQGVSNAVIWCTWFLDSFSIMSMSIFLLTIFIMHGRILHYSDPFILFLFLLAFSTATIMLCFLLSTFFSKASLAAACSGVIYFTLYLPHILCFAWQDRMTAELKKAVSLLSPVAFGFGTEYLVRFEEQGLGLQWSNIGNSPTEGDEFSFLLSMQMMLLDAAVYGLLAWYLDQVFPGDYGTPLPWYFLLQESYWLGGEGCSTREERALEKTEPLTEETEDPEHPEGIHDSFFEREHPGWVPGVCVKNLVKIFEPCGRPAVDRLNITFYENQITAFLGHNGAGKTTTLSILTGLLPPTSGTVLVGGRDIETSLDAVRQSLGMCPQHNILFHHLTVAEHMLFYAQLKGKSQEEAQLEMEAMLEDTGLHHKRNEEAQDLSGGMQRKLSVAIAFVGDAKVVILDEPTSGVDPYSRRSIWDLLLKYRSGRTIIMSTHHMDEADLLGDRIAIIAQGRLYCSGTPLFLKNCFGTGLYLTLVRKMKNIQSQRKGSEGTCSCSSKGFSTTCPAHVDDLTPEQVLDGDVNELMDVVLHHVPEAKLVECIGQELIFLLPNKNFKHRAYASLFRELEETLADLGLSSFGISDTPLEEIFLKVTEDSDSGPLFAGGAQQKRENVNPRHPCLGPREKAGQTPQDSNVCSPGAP
T1 sequence (P78363 1326-2273): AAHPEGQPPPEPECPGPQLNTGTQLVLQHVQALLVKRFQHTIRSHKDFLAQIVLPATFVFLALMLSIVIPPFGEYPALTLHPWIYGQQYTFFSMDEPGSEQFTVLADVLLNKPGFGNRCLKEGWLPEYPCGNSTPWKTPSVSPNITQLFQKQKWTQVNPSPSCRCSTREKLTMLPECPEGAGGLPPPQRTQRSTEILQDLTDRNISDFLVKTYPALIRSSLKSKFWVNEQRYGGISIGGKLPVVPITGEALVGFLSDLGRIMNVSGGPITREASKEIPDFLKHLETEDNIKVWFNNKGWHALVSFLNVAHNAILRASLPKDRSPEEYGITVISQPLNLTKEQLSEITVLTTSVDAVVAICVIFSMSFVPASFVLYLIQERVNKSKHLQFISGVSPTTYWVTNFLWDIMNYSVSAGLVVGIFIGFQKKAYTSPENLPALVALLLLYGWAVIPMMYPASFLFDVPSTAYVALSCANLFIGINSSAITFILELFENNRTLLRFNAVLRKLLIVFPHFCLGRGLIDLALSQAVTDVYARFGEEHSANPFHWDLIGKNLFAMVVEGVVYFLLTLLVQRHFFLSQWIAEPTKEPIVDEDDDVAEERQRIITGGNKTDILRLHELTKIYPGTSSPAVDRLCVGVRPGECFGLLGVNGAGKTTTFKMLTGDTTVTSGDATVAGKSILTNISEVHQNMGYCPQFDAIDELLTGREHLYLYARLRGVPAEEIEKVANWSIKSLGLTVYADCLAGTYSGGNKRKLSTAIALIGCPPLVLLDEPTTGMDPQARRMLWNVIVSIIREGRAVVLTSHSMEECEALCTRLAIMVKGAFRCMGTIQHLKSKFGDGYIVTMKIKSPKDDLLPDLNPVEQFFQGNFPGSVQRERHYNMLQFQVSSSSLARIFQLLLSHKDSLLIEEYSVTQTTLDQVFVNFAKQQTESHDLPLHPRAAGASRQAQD
Procedure: as §1

ABCR = target: T2, ABCR (Homo sapiens, UniProt P78363); assay: 8-azido-ATP/ADP nucleotide trapping in membranes from transfected cells; conditions: 800 μM orthovanadate, 5 μM 8-azido-[α-32P]ATP, 37° C.
T2 construct: Membranes from transfected cells expressing either full-length ABCR (lanes 1 & 2) or co-expressing the N and C halves; expressed in transfected cells; host or cells: transfected cells (COS-1 or EBNA293)
T2 sequence (P78363 whole entry): as the sequence (P78363 whole entry) above
Procedure: FIG. 7. Nucleotide trapping by ABCR and co-expressed N and C halves. A. Effect of orthovanadate on nucleotide trapping. Membranes from transfected cells were incubated with 5 μM 8-azido-[α-^32P]ATP at 37° C., washed, and tightly bound nucleotides were UV crosslinked. Lane 1, full-length ABCR; lane 2, full-length ABCR incubated with 800 μM orthovanadate; lane 3, co-expressed N and C halves; lane 4, co-expressed N- and C-halves incubated with 800 μM orthovanadate. B. Effect of temperature and retinal on nucleotide trapping. Lane 1, full-length ABCR labeled at 0° C.; lane 2, full-length ABCR labeled at 37° C.; lane 3, full-length ABCR labeled at 37° C. in the presence of 50 μM all-trans retinal; lane 4, co-expressed N and C halves labeled at 0° C.; lane 5, co-expressed N and C halves labeled at 37° C.; lane 6, co-expressed N and C halves labeled at 37° C. in the presence of 50 μM all-trans retinal.
8-Azido-ATP Trapping—Membranes were incubated with 5 μM 8-azido-[α-^32P]ATP in 50 μl of labeling buffer with or without 800 μM sodium orthovanadate for 10 min at 37° C. All-trans retinal and 50 μM DTT were added where indicated. Binding was stopped by the addition of ice-cold 20 mM Tris-HCl, pH 7.4, the membranes were collected by centrifugation and washed one more time. Samples exposed to orthovanadate were washed in the presence of 800 μM orthovanadate. […]

effect on 8-azido-ATP labeling (full-length ABCR) | effect on 8-azido-ATP labeling [1] | effect on 8-azido ATP/ADP trapping (ABCR) | Compound
essentially abolished | essentially abolished |  | Nc1ncnc2c1ncn2[C@@H]1O[C@H](COP(=O)(O)OP(=O)(O)OP(=O)(O)O)[C@@H](O)[C@H]1O [ATP]
 |  | not dependent | [Na+].[Na+].[Na+].[O]=[V]([O-])([O-])[O-] [sodium orthovanadate]
